In patent US5455161A, “Method for the monitoring of multiple anticancer drug resistance” (priority 1992, dated 1995):
pIC50: −log10 of the molar value. Numbered stars: 1 amine (or outer) side, 2 acyl side, 3 side chain; on linkers, the order of the positions; unused ones are H or OH. Bridge positions count the residues as written; N and C are the ends. Square brackets hold non-standard residues; d marks the D form. Peptide text beside a SMILES is read from it. I, II: the chains in the order shown. Actinocin(9to1) = Cc1c2oc3c(C)ccc(C(=O)[*:1])c3nc-2c(C(=O)[*:2])c(N)c1=O; NMeV = CN[C@H](C(=O)O)C(C)C; Sar = CNCC(=O)O

Assays:
AA8 cells [1] = test: ODC (ornithine decarboxylase activity) assay of cellular drug sensitivity, wild type AA8 cells; format: cell-based, Chinese hamster; details: for pIC50: Cricetulus griseus, read-out: IC50 (ODC assay) AA8
Procedure: (§1) The protein determinations were carried out according to the method of Bradford (Anal.Biochem. 72, 248-54, 1976), using lysozyme, triple crystallization and dialysis, as a standard.
(§2) Monolayers of parental AA8 and multidrug resistant T19 cells grown for 4 days at 37° C., were exposed to various concentrations of the antimitotic agent colchinine, for 6 hours, 18 hours and 48 hours and then the activity of ornithine decarboxylase was determined.
(§3) In the same manner, this assay was tested with various anticancer drugs of various structure and distinct mechanisms of action. The following cytotoxic agents were tested: vinca alkaloids, anthracyclines, epipodophyllotoxins, actinomycin D and antifolates.

AA8 cells [2] = test: cells; format: cell-based, Chinese hamster; details: for pIC50: Cricetulus griseus, CHO-AA8, read-out: LD50 (clonogenic assay) AA8
Procedure: (§4) Clonogenic cytotoxic assays were performed with AA8 and T19 cells exposed to various concentrations of colchinine for 6 hours, 18 hours, 48 hours or continuously, and each time the clonal surviving fractions were determined.

T19 cells [3] = test: cells; format: cell-based, Chinese hamster
Procedure: as §4

T19 cells [4] = test: ODC (ornithine decarboxylase activity) assay of drug resistance, multidrug resistant T19 cells; format: cell-based, Chinese hamster; details: for pIC50: Cricetulus griseus, read-out: IC50 (ODC assay) T19; for Resistance (-fold), ODC assay, T19 versus AA8: T19/AA8 ratio of IC50
Procedure: as §1, §2, §3

[5] = target: T1, ornithine decarboxylase from AA8 cells (Cricetulus griseus, UniProt P14019); test: biochemical; details: IC50, concentration required to reduce the ornithine decarboxylase by 50%
T1 sequence (P14019 1-455): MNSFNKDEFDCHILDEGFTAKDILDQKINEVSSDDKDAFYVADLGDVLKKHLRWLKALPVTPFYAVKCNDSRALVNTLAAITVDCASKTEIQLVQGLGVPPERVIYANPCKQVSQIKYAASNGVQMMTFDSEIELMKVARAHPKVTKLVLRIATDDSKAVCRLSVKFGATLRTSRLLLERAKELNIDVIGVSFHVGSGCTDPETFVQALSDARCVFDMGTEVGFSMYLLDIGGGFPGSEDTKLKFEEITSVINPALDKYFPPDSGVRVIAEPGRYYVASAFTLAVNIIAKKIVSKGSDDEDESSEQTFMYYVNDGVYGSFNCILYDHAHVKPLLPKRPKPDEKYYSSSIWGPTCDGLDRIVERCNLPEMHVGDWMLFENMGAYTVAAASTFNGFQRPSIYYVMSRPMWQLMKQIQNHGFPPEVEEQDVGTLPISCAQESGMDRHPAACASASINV
Procedure: Monolayer cells grown in the absence and presence of a known cytotoxic agent, were washed twice with 10 mls of phosphate-buffered saline and suspended in a petri dish (0.5 ml/10 cm) in an ice-cold ornithine decarboxylase buffer containinig 50 mM of Tris-Cl, pH=7.3, 0.1 mM ethylene diamine tetraacetic acid, 50 uM pyridoxal 5'-phosphate (Sigma) and 5 mM of dithiothreitol. The cells were lysed under three cycles of freezing in liquid nitrogen and thawing at 37° C. The cell lysates were then centrifuged at 15,000 g for 15 minutes at 4° C., the supernatant liquid was collected and used in the assay for the ornithine decarboxylase activity. The assay was based on the Djurhuss method that utilizes a strong cation-exchange paper (Anal. Biochem. 113:352-5, 1981). […] After incubation for 60 minutes at 37° C. under agitation, the reaction mixture was spotted onto a strip of P81 cellulose phosphate paper and dried. After washing in a solution of 0.1M ammonium hydroxide and drying,liquid scintillation counting was performed. In similar manner, blank values were determined by using 80 ul of ornithine decarboxylase buffer, instead of the cytosolic cell extract.

[6] = CHO-AA8, incubation time 48 hr, mean of two to four independent experiments
[7] = Cricetulus griseus, read-out: LD50 (clonogenic assay) T19
[8] = incubation time 48 hr, mean of two to four independent experiments
[9] = CHO-AA8, incubation time 18 hr, mean of two to four independent experiments
[10] = incubation time 18 hr, mean of two to four independent experiments

## CN(Cc1cnc2nc(N)nc(N)c2n1)c1ccc(C(=O)N[C@@H](CCC(=O)O)C(=O)O)cc1 [Methotrexate]
AA8 cells [1]; [6]
  pIC50: 7.25
AA8 cells [2]
  pIC50: 7.60
T19 cells [3]; [7]
  pIC50: 7.51
T19 cells [3]; hamster, t19 vs aa8 cells
  Resistance (-fold), clonogenic assay, T19 versus AA8: 1.2 -fold
T19 cells [4]; [8]
  pIC50: 7.20
T19 cells [4]; incubation time 48 hr
  Resistance (-fold), ODC assay, T19 versus AA8: 1.1 -fold

## Cc1c2oc3c(C)ccc(C(=O)N[C@@H]4C(=O)N[C@H](C(C)C)C(=O)N5CCC[C@H]5C(=O)N(C)CC(=O)N(C)[C@@H](C(C)C)C(=O)O[C@@H]4C)c3nc-2c(C(=O)N[C@@H]2C(=O)N[C@H](C(C)C)C(=O)N3CCC[C@H]3C(=O)N(C)CC(=O)N(C)[C@@H](C(C)C)C(=O)O[C@@H]2C)c(N)c1=O [Actinomycin D] (I: T[dV]P[Sar][NMeV] / II: T[dV]P[Sar][NMeV]; ester I:1-I:C, II:1-II:C; linker I:N-II:N via Actinocin(9to1))
AA8 cells [1]; CHO-AA8, 18 h
  pIC50: 8.43
AA8 cells [2]
  pIC50: 8.66
T19 cells [3]; [7]
  pIC50: 7.30
T19 cells [3]; ratio of LD50 T19/AA8
  Resistance (-fold), clonogenic assay, T19 versus AA8: 22.6 -fold
T19 cells [4]; 18 h
  pIC50: 7.38
T19 cells [4]; incubation time 18 hr
  Resistance (-fold), ODC assay, T19 versus AA8: 11.3 -fold

## CC[C@]1(O)C[C@@H]2CN(CCc3c([nH]c4ccccc34)[C@@](C(=O)OC)(c3cc4c(cc3OC)N(C)[C@H]3[C@@](O)(C(=O)OC)[C@H](OC(C)=O)[C@]5(CC)C=CCN6CC[C@]43[C@@H]65)C2)C1 [Vinblastine]
AA8 cells [1]; [9]
  pIC50: 7.80
AA8 cells [2]
  pIC50: 8.52
T19 cells [3]; [7]
  pIC50: 7.10
T19 cells [3]; hamster, t19 vs aa8 cells
  Resistance (-fold), clonogenic assay, T19 versus AA8: 26.7 -fold
T19 cells [4]; [10]
  pIC50: 6.56
T19 cells [4]; incubation time 18 hr
  Resistance (-fold), ODC assay, T19 versus AA8: 17.3 -fold

## COc1cc2c(c(OC)c1OC)-c1ccc(OC)c(=O)cc1[C@@H](NC(C)=O)CC2 [Colchicine]
AA8 cells [1]; exposure 6, 18 and 48 hours
  ornithine decarboxylase activity with increased drug concentrations: dose-dependent decrease
AA8 cells [2]
  LD50 (clonogenic assay) AA8: 100 nM
T19 cells [3]; read-out: LD50 (50% lethal dose), clonal survival, t19 cells
  pIC50: 5.17

## NCCCC(N)(C(=O)O)C(F)F (racemic) [DMFO, DL-o-difluoromethylornithine]
[5]; extract of AA8-induced cells (received fresh serum-containing medium), 2x10^7 cells
  pIC50: 5.30
[5]; extract of non-induced AA8 cells (no fresh medium), same number of cells
  pIC50: 5.96

## COc1ccc(OC)c(Cc2cnc3nc(N)nc(N)c3c2C)c1 [Piritrexim]
AA8 cells [1]; [6]
  pIC50: 8.24
AA8 cells [2]
  pIC50: 8.34
T19 cells [3]; [7]
  pIC50: 6.95
T19 cells [3]; ratio of LD50 T19/AA8
  Resistance (-fold), clonogenic assay, T19 versus AA8: 24.5 -fold
T19 cells [4]; [8]
  pIC50: 6.90
T19 cells [4]; incubation time 48 hr
  Resistance (-fold), ODC assay, T19 versus AA8: 22.0 -fold

## COc1cccc2c1C(=O)c1c(O)c3c(c(O)c1C2=O)C[C@@](O)(C(=O)CO)C[C@@H]3O[C@H]1C[C@H](N)[C@H](O)[C@H](C)O1 [Doxorubicin]
AA8 cells [1]; [6]
  pIC50: 7.26
AA8 cells [2]
  pIC50: 7.40
T19 cells [3]; [7]
  pIC50: 5.07
T19 cells [4]; [8]
  pIC50: 5.45
T19 cells [4]; incubation time 48 hr
  Resistance (-fold), ODC assay, T19 versus AA8: 65.0 -fold

## COc1ccc(C[C@H](N)C(=O)N[C@H]2[C@@H](O)[C@H](n3cnc4c(N(C)C)ncnc43)O[C@@H]2CO)cc1 [Puromycin]
AA8 cells [1]; [6]
  pIC50: 7.98
AA8 cells [2]
  pIC50: 8.35
T19 cells [3]; [7]
  pIC50: 6.94
T19 cells [3]; hamster, t19 vs aa8 cells
  Resistance (-fold), clonogenic assay, T19 versus AA8: 25.8 -fold
T19 cells [4]; [8]
  pIC50: 6.50
T19 cells [4]; incubation time 48 hr
  Resistance (-fold), ODC assay, T19 versus AA8: 30.0 -fold

## CC[C@]1(O)C[C@H]2CN(CCc3c([nH]c4ccccc34)[C@@](C(=O)OC)(c3cc4c(cc3OC)N(C=O)[C@H]3[C@@](O)(C(=O)OC)[C@H](OC(C)=O)[C@]5(CC)C=CCN6CC[C@]43[C@@H]65)C2)C1 [Vincristine]
AA8 cells [1]; [9]
  pIC50: 7.10
AA8 cells [2]
  pIC50: 8.09
T19 cells [3]; [7]
  pIC50: 6.64
T19 cells [3]; hamster, t19 vs aa8 cells
  Resistance (-fold), clonogenic assay, T19 versus AA8: 28.1 -fold
T19 cells [4]; [10]
  pIC50: 5.81
T19 cells [4]; incubation time 18 hr
  Resistance (-fold), ODC assay, T19 versus AA8: 19.2 -fold

## COc1cccc2c1C(=O)c1c(O)c3c(c(O)c1C2=O)C[C@@](O)(C(C)=O)C[C@@H]3O[C@H]1C[C@H](N)[C@H](O)[C@H](C)O1 [Daunorubicin]
AA8 cells [1]; [6]
  pIC50: 7.53
AA8 cells [2]
  pIC50: 8.07
T19 cells [3]; [7]
  pIC50: 6.14
T19 cells [3]; hamster, t19 vs aa8 cells
  Resistance (-fold), clonogenic assay, T19 versus AA8: 84.1 -fold
T19 cells [4]; [8]
  pIC50: 5.73
T19 cells [4]; incubation time 48 hr
  Resistance (-fold), ODC assay, T19 versus AA8: 63.0 -fold

## Cc1nc(N)nc(N)c1-c1ccc(Cl)c(Cl)c1 [Metoprine]
AA8 cells [1]; [6]
  pIC50: 7.86
AA8 cells [2]
  pIC50: 7.90
T19 cells [3]; [7]
  pIC50: 7.47
T19 cells [3]; hamster, t19 vs aa8 cells
  Resistance (-fold), clonogenic assay, T19 versus AA8: 2.7 -fold
T19 cells [4]; [8]
  pIC50: 7.27
T19 cells [4]; incubation time 48 hr
  Resistance (-fold), ODC assay, T19 versus AA8: 3.9 -fold

## COc1cc(NCc2ccc3nc(N)nc(N)c3c2C)cc(OC)c1OC [Trimetrexate]
AA8 cells [1]; [6]
  pIC50: 8.54
AA8 cells [2]
  pIC50: 8.62
T19 cells [3]; [7]
  pIC50: 7.16
T19 cells [3]; hamster, t19 vs aa8 cells
  Resistance (-fold), clonogenic assay, T19 versus AA8: 28.6 -fold
T19 cells [4]; [8]
  pIC50: 7.14
T19 cells [4]; incubation time 48 hr
  Resistance (-fold), ODC assay, T19 versus AA8: 25.0 -fold

## COc1cc([C@@H]2c3cc4c(cc3[C@@H](O[C@@H]3O[C@@H]5CO[C@@H](C)O[C@H]5[C@H](O)[C@H]3O)[C@H]3COC(=O)[C@H]23)OCO4)cc(OC)c1O [Etoposide]
AA8 cells [1]; CHO-AA8, 48 h
  pIC50: 6.44
AA8 cells [2]
  pIC50: 6.58
T19 cells [3]; [7]
  pIC50: 5.38
T19 cells [3]; ratio of LD50 T19/AA8
  Resistance (-fold), clonogenic assay, T19 versus AA8: 15.9 -fold
T19 cells [4]; 48 h
  pIC50: 5.38
T19 cells [4]; incubation time 48 hr
  Resistance (-fold), ODC assay, T19 versus AA8: 11.4 -fold
